Laboratory results from ChEMBL document CHEMBL4665642, “Anticancer profile of newly synthesized BRAF inhibitors possess 5-(pyrimidin-4-yl)imidazo[2,1-b]thiazole scaffold” (Bioorg Med Chem, 2019).

Experiments:
Assay type in all cases: functional
Conditions in all cases: read-out: Activity
[1] = tested on: HL-60(TB); assay: Cytotoxicity against human HL-60(TB) cells assessed as cell viability at 10 uM incubated for 48 hrs by sulforhodamine B assay relative to control
[2] = tested on: SN12C; assay: Cytotoxicity against human SN12C cells assessed as cell viability at 10 uM incubated for 48 hrs by sulforhodamine B assay relative to control
[3] = tested on: HOP-92; assay: Cytotoxicity against human HOP-92 cells assessed as cell viability at 10 uM incubated for 48 hrs by sulforhodamine B assay relative to control
[4] = tested on: RPMI-8226; assay: Cytotoxicity against human RPMI-8226 cells assessed as cell viability at 10 uM incubated for 48 hrs by sulforhodamine B assay relative to control
[5] = tested on: KM12; assay: Cytotoxicity against human KM12 cells assessed as cell viability at 10 uM incubated for 48 hrs by sulforhodamine B assay relative to control
[6] = tested on: SK-OV-3; assay: Cytotoxicity against human SK-OV-3 cells assessed as cell viability at 10 uM incubated for 48 hrs by sulforhodamine B assay relative to control
[7] = tested on: TK-10; assay: Cytotoxicity against human TK-10 cells assessed as cell viability at 10 uM incubated for 48 hrs by sulforhodamine B assay relative to control
[8] = tested on: MCF7; assay: Cytotoxicity against human MCF7 cells assessed as cell viability at 10 uM incubated for 48 hrs by sulforhodamine B assay relative to control
[9] = tested on: DU-145; assay: Cytotoxicity against human DU-145 cells assessed as cell viability at 10 uM incubated for 48 hrs by sulforhodamine B assay relative to control
[10] = tested on: A549; assay: Cytotoxicity against human A549 cells assessed as cell viability at 10 uM incubated for 48 hrs by sulforhodamine B assay relative to control
[11] = tested on: SK-MEL-28; assay: Cytotoxicity against human SK-MEL-28 cells assessed as cell viability at 10 uM incubated for 48 hrs by sulforhodamine B assay relative to control
[12] = tested on: Hs-578T; assay: Cytotoxicity against human HS-578T cells assessed as cell viability at 10 uM incubated for 48 hrs by sulforhodamine B assay relative to control
[13] = tested on: NCI-H460; assay: Cytotoxicity against human NCI-H460 cells assessed as cell viability at 10 uM incubated for 48 hrs by sulforhodamine B assay relative to control
[14] = tested on: SF-268; assay: Cytotoxicity against human SF-268 cells assessed as cell viability at 10 uM incubated for 48 hrs by sulforhodamine B assay relative to control
[15] = tested on: HCT-29; assay: Cytotoxicity against human […] cells assessed as cell viability at 10 uM incubated for 48 hrs by sulforhodamine B assay relative to control
[16] = tested on: PC-3; assay: Cytotoxicity against human PC-3 cells assessed as cell viability at 10 uM incubated for 48 hrs by sulforhodamine B assay relative to control
[17] = tested on: OVCAR-3; assay: Cytotoxicity against human OVCAR-3 cells assessed as cell viability at 10 uM incubated for 48 hrs by sulforhodamine B assay relative to control
[18] = tested on: MDA-MB-231; assay: Cytotoxicity against human MDA-MB-231 cells assessed as cell viability at 10 uM incubated for 48 hrs by sulforhodamine B assay relative to control
[19] = tested on: M14; assay: Cytotoxicity against human M14 cells assessed as cell viability at 10 uM incubated for 48 hrs by sulforhodamine B assay relative to control
[20] = tested on: SNB-75; assay: Cytotoxicity against human SNB-75 cells assessed as cell viability at 10 uM incubated for 48 hrs by sulforhodamine B assay relative to control
[21] = tested on: SW-620; assay: Cytotoxicity against human SW-620 cells assessed as cell viability at 10 uM incubated for 48 hrs by sulforhodamine B assay relative to control
[22] = tested on: Malme-3M; assay: Cytotoxicity against human Malme-3M cells assessed as cell viability at 10 uM incubated for 48 hrs by sulforhodamine B assay relative to control
[23] = tested on: HCT-15; assay: Cytotoxicity against human HCT-15 cells assessed as cell viability at 10 uM incubated for 48 hrs by sulforhodamine B assay relative to control
[24] = tested on: BT-549; assay: Cytotoxicity against human BT-549 cells assessed as cell viability at 10 uM incubated for 48 hrs by sulforhodamine B assay relative to control
[25] = tested on: MOLT-4; assay: Cytotoxicity against human MOLT-4 cells assessed as cell viability at 10 uM incubated for 48 hrs by sulforhodamine B assay relative to control
[26] = tested on: HOP-62; assay: Cytotoxicity against human HOP-62 cells assessed as cell viability at 10 uM incubated for 48 hrs by sulforhodamine B assay relative to control
[27] = tested on: COLO 205; assay: Cytotoxicity against human COLO 205 cells assessed as cell viability at 10 uM incubated for 48 hrs by sulforhodamine B assay relative to control
[28] = tested on: K562; assay: Cytotoxicity against human K562 cells assessed as cell viability at 10 uM incubated for 48 hrs by sulforhodamine B assay relative to control
[29] = tested on: OVCAR-5; assay: Cytotoxicity against human OVCAR-5 cells assessed as cell viability at 10 uM incubated for 48 hrs by sulforhodamine B assay relative to control
[30] = tested on: 786-0; assay: Cytotoxicity against human 786-0 cells assessed as cell viability at 10 uM incubated for 48 hrs by sulforhodamine B assay relative to control
[31] = tested on: UO-31; assay: Cytotoxicity against human UO-31 cells assessed as cell viability at 10 uM incubated for 48 hrs by sulforhodamine B assay relative to control
[32] = tested on: SF-539; assay: Cytotoxicity against human SF-539 cells assessed as cell viability at 10 uM incubated for 48 hrs by sulforhodamine B assay relative to control
[33] = tested on: NCI/ADR-RES; assay: Cytotoxicity against human NCI/ADR-RES cells assessed as cell viability at 10 uM incubated for 48 hrs by sulforhodamine B assay relative to control
[34] = tested on: SNB-19; assay: Cytotoxicity against human SNB-19 cells assessed as cell viability at 10 uM incubated for 48 hrs by sulforhodamine B assay relative to control
[35] = tested on: IGROV-1; assay: Cytotoxicity against human IGROV-1 cells assessed as cell viability at 10 uM incubated for 48 hrs by sulforhodamine B assay relative to control
[36] = tested on: OVCAR-4; assay: Cytotoxicity against human OVCAR-4 cells assessed as cell viability at 10 uM incubated for 48 hrs by sulforhodamine B assay relative to control
[37] = tested on: RXF 393; assay: Cytotoxicity against human RXF 393 cells assessed as cell viability at 10 uM incubated for 48 hrs by sulforhodamine B assay relative to control
[38] = tested on: NCI-H226; assay: Cytotoxicity against human NCI-H226 cells assessed as cell viability at 10 uM incubated for 48 hrs by sulforhodamine B assay relative to control
[39] = tested on: SK-MEL-5; assay: Cytotoxicity against human SK-MEL-5 cells assessed as cell viability at 10 uM incubated for 48 hrs by sulforhodamine B assay relative to control
[40] = tested on: UACC-62; assay: Cytotoxicity against human UACC-62 cells assessed as cell viability at 10 uM incubated for 48 hrs by sulforhodamine B assay relative to control
[41] = tested on: T47D; assay: Cytotoxicity against human T47D cells assessed as cell viability at 10 uM incubated for 48 hrs by sulforhodamine B assay relative to control

## O=C(NCCNc1nccc(-c2c(-c3cccc(F)c3)nc3sccn23)n1)c1ccc(C(F)(F)F)cc1
[1]
  viability at 10 µM: 103%
[2]
  viability at 10 µM: 66.6%
[3]
  viability at 10 µM: 86.7%
[4]
  viability at 10 µM: 52.7%
[5]
  viability at 10 µM: 75.1%
[6]
  viability at 10 µM: 70.2%
[7]
  viability at 10 µM: 86.1%
[8]
  viability at 10 µM: 46.3%
[9]
  viability at 10 µM: 83.7%
[10]
  viability at 10 µM: 62.1%
[11]
  viability at 10 µM: 82.1%
[12]
  viability at 10 µM: 85.2%
[13]
  viability at 10 µM: 73.2%
[14]
  viability at 10 µM: 64.9%
[15]
  viability at 10 µM: 50.2%
[16]
  viability at 10 µM: 61%
[17]
  viability at 10 µM: 76.5%
[18]
  viability at 10 µM: 74.7%
[19]
  viability at 10 µM: 59.4%
[20]
  viability at 10 µM: 73.7%
[21]
  viability at 10 µM: 79%
[22]
  viability at 10 µM: 55.7%
[23]
  viability at 10 µM: 53.1%
[24]
  viability at 10 µM: 78.9%
[25]
  viability at 10 µM: 50%
[26]
  viability at 10 µM: 89.9%
[27]
  viability at 10 µM: 32.7%
[28]
  viability at 10 µM: 61.8%
[29]
  viability at 10 µM: 93.5%
[30]
  viability at 10 µM: 65.7%
[31]
  viability at 10 µM: 34.5%
[32]
  viability at 10 µM: 95.7%
[33]
  viability at 10 µM: 73.1%
[34]
  viability at 10 µM: 86.8%
[35]
  viability at 10 µM: 27.8%
[36]
  viability at 10 µM: 81.8%
[37]
  viability at 10 µM: 81.9%
[38]
  viability at 10 µM: 64.8%
[39]
  viability at 10 µM: 56.6%
[40]
  viability at 10 µM: 26.4%
[41]
  viability at 10 µM: 43%

## O=S(=O)(NCCCNc1nccc(-c2c(-c3cccc(F)c3)nc3sccn23)n1)c1ccc(Br)cc1
[1]
  viability at 10 µM: 75.9%
[2]
  viability at 10 µM: 53.9%
[3]
  viability at 10 µM: 73.7%
[4]
  viability at 10 µM: 39.4%
[5]
  viability at 10 µM: 46.7%
[6]
  viability at 10 µM: 80.1%
[7]
  viability at 10 µM: 74.8%
[8]
  viability at 10 µM: 41.9%
[9]
  viability at 10 µM: 61.9%
[10]
  viability at 10 µM: 55.1%
[11]
  viability at 10 µM: 67%
[12]
  viability at 10 µM: 71.7%
[13]
  viability at 10 µM: 60.5%
[14]
  viability at 10 µM: 60.6%
[15]
  viability at 10 µM: 23.8%
[16]
  viability at 10 µM: 40.8%
[17]
  viability at 10 µM: 57.8%
[18]
  viability at 10 µM: 76.4%
[19]
  viability at 10 µM: 48.1%
[20]
  viability at 10 µM: 88.6%
[21]
  viability at 10 µM: 77.6%
[22]
  viability at 10 µM: 69.4%
[23]
  viability at 10 µM: 26.4%
[24]
  viability at 10 µM: 64%
[25]
  viability at 10 µM: 33.8%
[26]
  viability at 10 µM: 94.4%
[27]
  viability at 10 µM: 33.5%
[28]
  viability at 10 µM: 25.4%
[29]
  viability at 10 µM: 110%
[30]
  viability at 10 µM: 73.5%
[31]
  viability at 10 µM: 31.6%
[32]
  viability at 10 µM: 98%
[33]
  viability at 10 µM: 34.4%
[34]
  viability at 10 µM: 84.5%
[35]
  viability at 10 µM: 24.4%
[36]
  viability at 10 µM: 34.2%
[37]
  viability at 10 µM: 81.8%
[38]
  viability at 10 µM: 32.7%
[39]
  viability at 10 µM: 21.2%
[40]
  viability at 10 µM: 18.3%
[41]
  viability at 10 µM: 13.7%
